The experiment has as its target T1, porcine S100A12 (Calgranulin C) (Sus scrofa, UniProt P80310).
T1 construct: pET28a-S100A12 in E. coli BL21(DE3); N-terminal or other His-tag cut with thrombin; non-covalent antiparallel homodimer; apo form in SPR
T1 sequence (P80310 1-92 limits assumed): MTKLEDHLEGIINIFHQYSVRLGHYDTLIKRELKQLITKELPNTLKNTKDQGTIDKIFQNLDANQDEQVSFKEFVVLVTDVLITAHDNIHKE
Kind of experiment: SPR, Biacore X, L1 sensorchip, immobilized LUVs. The format is binding. The text has this:
SPR, Biacore X, L1 sensorchip, immobilized LUVs on porcine S100A12 (Calgranulin C)
Background: SPR reads the build-up and loss of mass on a sensor chip optically.

By Kd is commonly meant a measure of binding affinity in units of concentration. High values mean weaker binding, low ones tighter binding. On to `CCCCCCCCCCCCCCCC(=O)OC[C@H](COP(=O)([O-])OCC[N+](C)(C)C)OC(=O)CCCCCCCCCCCCCCC` [DPPC, 1,2-dipalmitoyl-sn-glycero-3-phosphocholine], for which the Kd is 5.9 µM. As for `CCCCCCCCCCCCCCCC(=O)OC[C@H](COP(=O)(O)OCC(O)CO)OC(=O)CCCCCCCCCCCCCCC` (some centres unmarked) [DPPG, 1,2-dipalmitoyl-sn-glycero-3-phosphoglycerol], the figure is 0.63 µM.

Source of the values: publication PMC3867360, “Membrane Interactions of S100A12 (Calgranulin C)” (PLoS ONE, 2013).
